{"source": "patent US7317103B2", "about": "“Imaging agents for diagnosis of Parkinson's disease” (Molecular Insight Pharmaceuticals, Inc., priority 2000, dated 2008)", "origin": "cited, not measured here", "details": "Tc-99m labeled tropane analog, Kung et al"}
{"smiles": "CN1[C@H]2CC[C@@H]1[C@@H](CN(CC[S-])CC[N-]CC[S-])[C@@H](c1ccc(Cl)cc1)C2.[O]=[99Tc+4]", "note": "[TRODAT]", "values": [{"measurement": "absolute brain uptake", "result": "very low"}]}
